Data reported in patent US10065990B2, “Cyclic peptide compound, and preparation method, pharmaceutical composition and use thereof” (HANGZHOU GUANYU BIO-MEDICAL CO., LTD, priority 2013, dated 2018).
Like-named read-outs stand apart in the source and are kept apart here.

Columns and labels:
[1] = tested on: Hela (human cervical cancer cells); test: MTT cancer cell growth inhibition; type: cell-based; conditions: Homo sapiens, HeLa, 72 h, MTT, 72 hours incubation, read-out: GI50 Hela
Summary of the method: (§1)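 Read-out was formazan absorbance at 570 nm after a 4 h MTT step and DMSO solubilisation, converted to cell viability and fitted for GI50. Beforehand, cells (1500/well, overnight attachment) were treated with compound at 10^−5 to 10^−10 M for 72 h at 37° C.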

[2] = tested on: PANC-1 (Pac-1, human pancreatic cancer cells); test: MTT cancer cell growth inhibition; type: cell-based; conditions: Homo sapiens, PANC-1, 72 h, MTT, 72 hours incubation, read-out: GI50 PAN
Summary of the method: as §1

[3] = tested on: A549 (human lung cancer cells); test: MTT cancer cell growth inhibition; type: cell-based; conditions: Homo sapiens, A549, 72 h, MTT, 72 hours incubation, read-out: GI50 A54
Summary of the method: as §1

[4] = tested on: KBM-5 (human chronic myelogenous leukemia); test: MTT cancer cell growth inhibition; type: cell-based; conditions: Homo sapiens, KBM5, 72 h, MTT, 72 hours incubation, KBM-5 cells; read-out: GI50 KBM-5
Summary of the method: as §1

[5] = tested on: BGC-823 (human gastric cancer cells); test: MTT cancer cell growth inhibition; type: cell-based; conditions: Homo sapiens, BGC-823, 72 h, MTT, 72 hours incubation, read-out: GI50 BG
Summary of the method: as §1

[6] = tested on: N-87 (human gastric cancer cells); test: MTT cancer cell growth inhibition; type: cell-based; conditions: Homo sapiens, 72 h, MTT, 72 hours incubation, N-87 cells; read-out: GI50 N-87
Summary of the method: as §1

[7] = tested on: lncap (prostate cancer cells); test: MTT cancer cell growth inhibition; type: cell-based; conditions: Homo sapiens, LNCaP, 72 h, MTT, 72 hours incubation, read-out: GI50 lnca
Summary of the method: as §1

[8] = tested on: Bel-7402 (human hepatoma cells); test: MTT cancer cell growth inhibition; type: cell-based; conditions: Homo sapiens, Bel-7402, 72 h, MTT, 72 hours incubation, Bel-7402 cells; read-out: GI50 Bel-7402
Summary of the method: as §1

[9] = tested on: SGC-7901 (human gastric cancer cells); test: MTT cancer cell growth inhibition; type: cell-based; conditions: Homo sapiens, SGC-7901, 72 h, MTT, 72 hours incubation, SGC-7901 cells; read-out: GI50 SGC-7901
Summary of the method: as §1

[10] = tested on: Huh-7 (human hepatoma cells); test: MTT cancer cell growth inhibition; type: cell-based; conditions: Homo sapiens, Huh-7, 72 h, MTT, 72 hours incubation, Huh-7 cells; read-out: GI50 Huh-7
Summary of the method: as §1

[11] = tested on: H1975 (non-small cell lung adenocarcinoma); test: MTT cancer cell growth inhibition; type: cell-based; conditions: Homo sapiens, NCI-H1975, 72 h, MTT, 72 hours incubation, H1975 cells; read-out: GI50 H1975
Summary of the method: as §1

[12] = tested on: U937 (human leukemia cells); test: MTT cancer cell growth inhibition; type: cell-based; conditions: Homo sapiens, U-937, 72 h, MTT, 72 hours incubation, read-out: GI50 U93
Summary of the method: as §1

[13] = tested on: HCC827 (human non-small cell lung cancer cells); test: MTT cancer cell growth inhibition; type: cell-based; conditions: Homo sapiens, HCC827, 72 h, MTT, 72 hours incubation, HCC827 cells; read-out: GI50 HCC827
Summary of the method: as §1

[14] = tested on: KBM5-T315I (human chronic myelogenous leukemia); test: MTT cancer cell growth inhibition; type: cell-based; conditions: Homo sapiens, 72 h, MTT, 72 hours incubation, KBM5-T315I cells; read-out: GI50 KBM5-T315I
Summary of the method: as §1

[15] = tested on: K562 (human leukemia cells); test: MTT cancer cell growth inhibition; type: cell-based; conditions: Homo sapiens, K562, 72 h, MTT, 72 hours incubation, K562 cells; read-out: GI50 K562
Summary of the method: as §1

[16] = tested on: DU145 (human prostate cancer cells); test: MTT cancer cell growth inhibition; type: cell-based; conditions: Homo sapiens, DU-145, 72 h, MTT, 72 hours incubation, read-out: GI50 Du1
Summary of the method: as §1

[17] = tested on: HT1080 (human fibrosarcoma cells); test: MTT cancer cell growth inhibition; type: cell-based; conditions: Homo sapiens, HT-1080, 72 h, MTT, 72 hours incubation, read-out: GI50 HT1
Summary of the method: as §1

[18] = tested on: MOLT-4 (human acute lymphoblastic leukemia cells); test: MTT cancer cell growth inhibition; type: cell-based; conditions: Homo sapiens, MOLT-4, 72 h, MTT, 72 hours incubation, read-out: GI50 Mol
Summary of the method: as §1

[19] = tested on: MDA-MB-231 (breast cancer cells); test: MTT cancer cell growth inhibition; type: cell-based; conditions: Homo sapiens, MDA-MB-231, 72 h, read-out: GI50 MDA-MB-231, MTT, 72 hours incubation, MDA-MB-231 cells
Summary of the method: as §1

[20] = tested on: MCF-7 (human breast cancer cells); test: MTT cancer cell growth inhibition; type: cell-based; conditions: Homo sapiens, MCF7, 72 h, 72 hours incubation, read-out: GI50 MCF
Summary of the method: as §1

HDAC7 = target: T1, HDAC7 (Homo sapiens, UniProt Q8WUI4); test: HDAC biochemical activity measurement (fluorescent substrate deacetylation);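 further: fluorogenic deacetylation assay using acetyl-lysine substrate at 20 µM, enzyme and compound incubated 30 min at 37 °C, then developer added, fluorescence read at 360/460 nm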; conditions: HDAC7; 37° C. 30 minutes
T1 sequence (Q8WUI4 1-952): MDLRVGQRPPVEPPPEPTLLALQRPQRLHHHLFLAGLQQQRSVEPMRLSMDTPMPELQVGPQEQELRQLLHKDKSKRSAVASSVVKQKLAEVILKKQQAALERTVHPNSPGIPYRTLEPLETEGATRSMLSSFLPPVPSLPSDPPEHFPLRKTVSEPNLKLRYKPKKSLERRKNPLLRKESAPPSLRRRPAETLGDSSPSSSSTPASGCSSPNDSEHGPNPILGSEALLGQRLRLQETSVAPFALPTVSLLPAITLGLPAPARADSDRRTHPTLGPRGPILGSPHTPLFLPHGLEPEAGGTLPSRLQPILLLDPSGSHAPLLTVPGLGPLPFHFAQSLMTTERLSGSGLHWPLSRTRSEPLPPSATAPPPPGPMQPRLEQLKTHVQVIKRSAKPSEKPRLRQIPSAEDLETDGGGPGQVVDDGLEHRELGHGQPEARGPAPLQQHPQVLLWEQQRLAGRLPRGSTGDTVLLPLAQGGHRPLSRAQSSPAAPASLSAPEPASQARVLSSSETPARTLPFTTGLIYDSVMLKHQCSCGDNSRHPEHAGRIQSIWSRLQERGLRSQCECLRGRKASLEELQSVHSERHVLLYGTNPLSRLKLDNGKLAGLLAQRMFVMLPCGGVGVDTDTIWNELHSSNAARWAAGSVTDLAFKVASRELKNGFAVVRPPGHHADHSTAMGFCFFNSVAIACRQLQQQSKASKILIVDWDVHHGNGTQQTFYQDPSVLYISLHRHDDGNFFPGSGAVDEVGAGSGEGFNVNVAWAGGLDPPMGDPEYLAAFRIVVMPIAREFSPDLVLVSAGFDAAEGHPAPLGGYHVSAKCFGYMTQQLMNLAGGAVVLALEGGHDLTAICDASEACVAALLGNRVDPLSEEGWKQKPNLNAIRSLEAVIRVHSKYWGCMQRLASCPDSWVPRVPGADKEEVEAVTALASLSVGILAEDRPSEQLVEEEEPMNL

SMILES	GI50 [1]	GI50 [2]	GI50 [3]	GI50 [4]	GI50 [5]	GI50 [6]	GI50 [7]	GI50 [8]	GI50 [9]	GI50 [10]	GI50 [11]	GI50 [12]	GI50 [13]	GI50 [14]	GI50 [15]	GI50 [16]	GI50 [17]	GI50 [18]	GI50 [19]	IC50 HDAC7 (HDAC7)	also measured
C/C=C1\NC(=O)c2nc(ccc2F)CNC(=O)C[C@@H](/C=C/CCS)OC(=O)[C@H](CCCCN)NC1=O [Compound 116]	40 nM	40 nM	60 nM	18 nM	50 nM	43 nM	30 nM	28 nM	21 nM	52 nM	93 nM	20 nM	21 nM	36 nM	16 nM	20 nM	50 nM	30 nM	46 nM	no activity	GI50 [20]: 60 nM
C/C=C1\NC(=O)c2cc(F)cc(n2)CNC(=O)C[C@@H](/C=C/CCS)OC(=O)[C@H](Cc2cccc3ccccc23)NC1=O [Compound 125]	50 nM	120 nM	60 nM	64 nM	30 nM	31 nM	110 nM	57 nM	39 nM	25 nM	36 nM	50 nM	29 nM	58 nM	47 nM	30 nM	40 nM	110 nM	75 nM	no activity	GI50 [20]: 60 nM
C/C=C1\NC(=O)c2cc(SC)cc(n2)CNC(=O)C[C@@H](/C=C/CCSC(=O)CCCCCCC)OC(=O)[C@H](C(C)C)NC1=O [Compound 148]	–	–	–	35 nM	–	47 nM	–	53 nM	51 nM	64 nM	39 nM	–	16 nM	53 nM	62 nM	–	–	–	51 nM	no activity	GI50 ([1]; Hela cells): 40 nM; GI50 ([2]; PANC-1 cells): 40 nM; GI50 ([3]; A549 cells): 20 nM; GI50 ([5]; BGC-823 cells): 40 nM; GI50 ([7]; lncap cells): 40 nM; GI50 ([12]; U937 cells): 20 nM; GI50 ([16]; DU145 cells): 50 nM; GI50 ([17]; HT1080 cells): 80 nM; GI50 ([18]; MOLT-4 cells): 80 nM; GI50 ([20]; MCF-7 cells): 50 nM
CC(C)=C1NC(=O)c2cc(F)cc(n2)CNC(=O)C[C@@H](/C=C/CCS)OC(=O)[C@H](C(C)C)NC1=O [Compound 137]	70 nM	80 nM	20 nM	48 nM	30 nM	29 nM	20 nM	16 nM	81 nM	43 nM	53 nM	30 nM	49 nM	26 nM	35 nM	30 nM	80 nM	40 nM	45 nM	no activity	GI50 [20]: 30 nM

The remaining compounds from weak to strong by GI50 [4], led by results:

GI50 [1]	GI50 [2]	GI50 [3]	GI50 [4]	GI50 [5]	GI50 [6]	GI50 [7]	GI50 [8]	GI50 [9]	GI50 [10]	GI50 [11]	GI50 [12]	GI50 [13]	GI50 [14]	GI50 [15]	GI50 [16]	GI50 [17]	GI50 [18]	GI50 [19]	IC50 HDAC7 (HDAC7)	SMILES	also measured
90 nM	50 nM	40 nM	91 nM	60 nM	62 nM	40 nM	51 nM	48 nM	46 nM	38 nM	30 nM	51 nM	31 nM	26 nM	20 nM	50 nM	40 nM	46 nM	no activity	C=C1NC(=O)c2cc(F)cc(n2)CNC(=O)C[C@@H](/C=C/CCSC(C)=O)OC(=O)[C@H](C)NC1=O [Compound 91]	GI50 [20]: 30 nM
80 nM	70 nM	30 nM	81 nM	50 nM	52 nM	30 nM	74 nM	36 nM	35 nM	43 nM	40 nM	74 nM	29 nM	41 nM	40 nM	70 nM	30 nM	35 nM	no activity	C/C=C1\NC(=O)c2nc(ccc2F)CNC(=O)C[C@@H](/C=C/CCSC(=O)CCCCCCC)OC(=O)[C@H](Cc2ccccc2)NC1=O [Example 69]	GI50 [20]: 20 nM
70 nM	70 nM	50 nM	69 nM	60 nM	25 nM	190 nM	43 nM	57 nM	51 nM	15 nM	50 nM	34 nM	21 nM	47 nM	80 nM	70 nM	90 nM	67 nM	no activity	C=C1NC(=O)c2cccc(n2)CNC(=O)C[C@@H](/C=C/CCS)OC(=O)[C@H](C)NC1=O [Compound 139]	GI50 [20]: 10 nM
